We go through 67 molecules from patent US20240287079A1, “6-AMINOPYRAZOLOPYRIMIDINE COMPOUND AND PHARMACEUTICAL USE THEREOF” (Japan Tobacco Inc., priority 2021, published 2024).

NLRP3 inflammasome, sequence (Q96P20 whole entry): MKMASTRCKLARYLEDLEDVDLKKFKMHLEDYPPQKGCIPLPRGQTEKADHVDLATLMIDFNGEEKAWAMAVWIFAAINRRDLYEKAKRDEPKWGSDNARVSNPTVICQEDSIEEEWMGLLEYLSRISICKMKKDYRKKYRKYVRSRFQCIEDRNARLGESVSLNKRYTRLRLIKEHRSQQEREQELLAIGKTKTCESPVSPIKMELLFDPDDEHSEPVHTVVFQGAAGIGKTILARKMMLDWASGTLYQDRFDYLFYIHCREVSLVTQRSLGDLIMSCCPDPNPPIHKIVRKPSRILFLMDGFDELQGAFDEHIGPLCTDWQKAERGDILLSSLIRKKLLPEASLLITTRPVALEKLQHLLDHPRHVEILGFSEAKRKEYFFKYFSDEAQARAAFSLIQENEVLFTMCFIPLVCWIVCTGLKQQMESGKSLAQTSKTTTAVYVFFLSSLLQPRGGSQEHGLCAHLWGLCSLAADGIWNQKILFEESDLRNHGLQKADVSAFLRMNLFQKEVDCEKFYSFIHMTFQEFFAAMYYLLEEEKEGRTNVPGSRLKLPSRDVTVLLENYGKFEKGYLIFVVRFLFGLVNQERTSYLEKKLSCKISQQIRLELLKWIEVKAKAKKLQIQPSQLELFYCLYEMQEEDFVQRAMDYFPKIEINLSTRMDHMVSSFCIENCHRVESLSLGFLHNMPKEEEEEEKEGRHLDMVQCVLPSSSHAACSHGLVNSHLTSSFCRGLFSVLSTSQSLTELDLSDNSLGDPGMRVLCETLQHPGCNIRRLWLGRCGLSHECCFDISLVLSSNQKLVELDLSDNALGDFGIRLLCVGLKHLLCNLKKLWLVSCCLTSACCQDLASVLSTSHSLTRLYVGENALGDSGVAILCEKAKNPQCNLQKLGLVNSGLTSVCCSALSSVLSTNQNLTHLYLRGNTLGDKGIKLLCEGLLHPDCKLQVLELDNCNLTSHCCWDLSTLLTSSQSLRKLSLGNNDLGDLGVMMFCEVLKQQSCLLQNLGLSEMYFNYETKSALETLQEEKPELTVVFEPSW

The first experiment concerns the target NLRP3 inflammasome (Homo sapiens (Human), UniProt Q96P20). Nature of the experiment: Evaluation of NLRP3 inflammasome inhibitory activity (inhibition of IL-1β production in LPS/Nigericin-stimulated THP1-Null cells). The class given is cell-based. To be noted: IL-1β production in THP1-Null cells, PMA, LPS 1 μg/mL, Nigericin 7.5 μmol/L, AlphaLISA. The protocol: The NLRP3 inflammasome inhibitory activity of test compounds were evaluated on the basis of the inhibitory activity of the IL-1β production in THP1-Null cells (Product Number: thp-null, InvivoGen). […] The supernatant of the culture was removed, and thereto was added media for assay (25 μL/well) containing 1 μg/mL Lipopolysaccharides (Product Number: L2654, Sigma-Aldrich (registered trademark)). […] The supernatant of the culture was removed. […] A solution containing a test compound (20 μL/well) was added to test compound-setting wells. […] The supernatant of the culture was cryonically stored (set at −20° C.) until measurement of IL-1β.
The amount of IL-1β in the culture supernatant was quantitated with AlphaLISA(registered trademark) Human IL-1β Detection Kit (Product Number: AL220C, Perkin Elmer). Fluorescence intensity was measured with a microplate reader EnSpier (Model number: 2300-00J, Perkin Elmer) or EnSight(Model number: HH34000000, Perkin Elmer) according to procedure manuals attached thereto. Inhibition rates of the test compound-setting wells were calculated on the basis of 100% for the blank-setting wells and 0% for the control-setting wells.
One may read the IC50 as the concentration at which inhibition is half-maximal. The low end stands for greater potency, the high end for weaker potency. `Cc1ccccc1-n1cc2c(=O)[nH]c(N3CCOCC3C)nc2n1` (racemic) [Example 17] showed an IC50 of 2.8 µM.

With `Cc1ccccc1-n1cc2c(=O)[nH]c(N3CCC(O)C3)nc2n1` (racemic) [Example 21], the IC50 amounted to 1.6 µM.

In the case of `Cc1ccccc1-n1cc2c(=O)[nH]c(N3CCC(C#N)C3)nc2n1` (racemic) [Example 26], half-maximal inhibition (IC50) required 1.3 µM.

Molecule `Cc1ccccc1-n1cc2c(=O)[nH]c(N3CCC(c4ccccc4)C3)nc2n1` (racemic) [Example 27] gave an IC50 of 1.2 µM.

Molecule `CCOC1CCN(c2nc3nn(-c4ccccc4C)cc3c(=O)[nH]2)C1` (racemic) [Example 28] had an IC50 of 0.95 µM.

Take `Cc1ccccc1-n1cc2c(=O)[nH]c(N3CCC(C)(O)C3)nc2n1` (racemic) [Example 37]: half-maximal inhibition (IC50) required 3.2 µM.

`Cc1ccccc1-n1cc2c(=O)[nH]c(N3CCC3Cc3ccccc3)nc2n1` (racemic) [Example 38] had an IC50 of 2.5 µM.

`CCOC1CCN(c2nc3nn(-c4c(C)cccc4C)cc3c(=O)[nH]2)C1` (racemic) [Example 48] had an IC50 of 0.82 µM.

With `COC1CCN(c2nc3nn(-c4c(C)cccc4C)cc3c(=O)[nH]2)C1` (racemic) [Example 54], the midpoint of inhibition, the IC50, lay at 0.48 µM.

For `COC1CCN(c2nc3nn(-c4ccc(C)cc4C)cc3c(=O)[nH]2)C1` (racemic) [Example 56], the IC50 was determined as 0.19 µM.

Molecule `CCOC1CCN(c2nc3nn(-c4ccc(C)cc4C)cc3c(=O)[nH]2)C1` (racemic) [Example 57] returned an IC50 of 0.15 µM.

In turn, `COC1CCN(c2nc3nn(-c4ccc(Br)cc4C)cc3c(=O)[nH]2)C1` (racemic) [Example 70] returned an IC50 of 0.039 µM.

For `COCC1CN(c2nc3nn(-c4ccc(Br)cc4C)cc3c(=O)[nH]2)CCO1` (racemic) [Example 72], half-maximal inhibition (IC50) was put at 0.052 µM.

On to `Cc1cc(Br)ccc1-n1cc2c(=O)[nH]c(N3CCC(C#N)C3)nc2n1` (racemic) [Example 90], for which the half-maximal inhibitory concentration (IC50) is 0.0049 µM.

In the case of `COC1CCN(c2nc3nn(-c4c(C)cc(C)cc4C)cc3c(=O)[nH]2)C1` (racemic) [Example 93], half-maximal inhibition (IC50) required 0.0091 µM.

In turn, `Cc1cc(C)c(-n2cc3c(=O)[nH]c(N4CCCC(O)C4)nc3n2)c(C)c1` (racemic) [Example 107] showed an IC50 of 0.058 µM.

In turn, `COC1CCCN(c2nc3nn(-c4c(C)cc(C)cc4C)cc3c(=O)[nH]2)C1` (racemic) [Example 108] gave an IC50 of 0.2 µM.

`Cc1cc(C)c(-n2cc3c(=O)[nH]c(N4CCC(C)C4)nc3n2)c(C)c1` (racemic) [Example 109]: the midpoint of inhibition, the IC50, lay at 0.064 µM.

For `CNC(=O)C1CCN(c2nc3nn(-c4c(C)cc(C)cc4C)cc3c(=O)[nH]2)C1` (racemic) [Example 110], the IC50 was found to be 0.08 µM.

In turn, `CC(=O)NC1CCN(c2nc3nn(-c4c(C)cc(C)cc4C)cc3c(=O)[nH]2)C1` (racemic) [Example 111] displayed a concentration for half-maximal inhibition (IC50) of 0.056 µM.

`Cc1cc(C)c(-n2cc3c(=O)[nH]c(N4CCC(S(C)(=O)=O)C4)nc3n2)c(C)c1` (racemic) [Example 112] yielded an IC50 of 0.055 µM.

With `Cc1cc(C)c(-n2cc3c(=O)[nH]c(N4CCC(N(C)C)C4)nc3n2)c(C)c1` (racemic) [Example 113], half-maximal inhibition (IC50) required 0.063 µM.

In turn, `Cc1cc(C)c(-n2cc3c(=O)[nH]c(N4CCCC(CO)C4)nc3n2)c(C)c1` (racemic) [Example 116] gave an IC50 of 0.079 µM.

With `CC(O)c1cc(Br)ccc1-n1cc2c(=O)[nH]c(N3CCOCC3)nc2n1` (racemic) [Example 130], the IC50 worked out at 0.063 µM.

In the case of `O=c1[nH]c(N2CCOCC2)nc2nn(-c3ccc(Br)cc3C(O)C3CC3)cc12` (racemic) [Example 150], the IC50 worked out at 0.016 µM.

For the molecule `Cc1cc(Br)ccc1-n1cc2c(=O)[nH]c(N3CC4CC3CO4)nc2n1` (racemic) [Example 159], half-maximal inhibition (IC50) required 0.011 µM.

Consider `Cc1cc(Cl)cc(C(O)C2CC2)c1-n1cc2c(=O)[nH]c(N3CCOCC3)nc2n1` (racemic) [Example 162], for which 0.15 µM corresponded to half-maximal inhibition (IC50).

Regarding `O=c1[nH]c(N2CCCC2CO)nc2nn(-c3ccc(C(F)(F)F)cc3Cl)cc12` (racemic) [Example 178], half-maximal inhibition (IC50) was put at 0.033 µM.

Molecule `Cc1cc(Cl)cc(C(C)C)c1-n1cc2c(=O)[nH]c(N3CCOCC3)nc2n1` (racemic) [Example 188] had an IC50 of 0.089 µM.

Consider `Cc1cc(Br)cc(C)c1-n1cc2c(=O)[nH]c(N3CCC(C(C)(C)O)C3)nc2n1` (racemic) [Example 194], for which the IC50 was determined as 0.024 µM.

Take `Cc1cc(Br)cc(C)c1-n1cc2c(=O)[nH]c(N3CC4CC3C4)nc2n1` (racemic) [Example 217]: the IC50 was 0.0071 µM.

Consider `Cc1cc(Br)cc(C)c1-n1cc2c(=O)[nH]c(N3CC4CC3CN4S(C)(=O)=O)nc2n1` (racemic) [Example 219], for which the IC50 turned out to be 0.019 µM.

As for `COCC(=O)N1CC2CC1CN2c1nc2nn(-c3c(C)cc(Br)cc3C)cc2c(=O)[nH]1` (racemic) [Example 220], half-maximal inhibition (IC50) was put at 0.023 µM.

For `COCC(=O)N1CC2CC1CN2c1nc2nn(-c3c(C)cc(C4CC4)cc3C)cc2c(=O)[nH]1` (racemic) [Example 234], the IC50 is 0.024 µM.

In turn, `Cc1cc(Br)cc(C)c1-n1cc2c(=O)[nH]c(NC3CCCN(C)C3)nc2n1` (racemic) [Example 245] had a concentration for half-maximal inhibition (IC50) of 0.008 µM.

For `Cc1cc(Br)cc(C)c1-n1cc2c(=O)[nH]c(N3CC4COC(C4)C3)nc2n1` (racemic) [Example 279], half-maximal inhibition (IC50) required 0.015 µM.

Molecule `Cc1cc(Br)cc(C)c1-n1cc2c(=O)[nH]c(N3CCOC4CC43)nc2n1` (racemic) [Example 289] returned an IC50 of 0.01 µM.

For `Cc1cc(C(C)C(F)(F)F)cc(C)c1-n1cc2c(=O)[nH]c(N3CCOCC3)nc2n1` (racemic) [Example 294], it took 0.27 µM to reach half-maximal inhibition (IC50).

In turn, `Cc1cc(Br)cc(C)c1-n1cc2c(=O)[nH]c(N3CCC(C#N)C3)nc2n1` (racemic) [Example 323] returned an IC50 of 0.0064 µM.

Turning to `Cc1cc(C2CC2)cc(C)c1-n1cc2c(=O)[nH]c(N3CCC(C#N)C3)nc2n1` (racemic) [Example 324], the IC50 turned out to be 0.0062 µM.

For the molecule `CCC(C)n1nc(C)c(-n2cc3c(=O)[nH]c(N4CCCC4)nc3n2)c1C` (racemic) [Example 347], inhibition was half-maximal at 0.92 µM (IC50).

Regarding `Cc1cc(Br)cc(C)c1-n1cc2c(=O)[nH]c(N3CCOCC3O)nc2n1` (racemic) [Example 363], the IC50 came to 0.0029 µM.

`Cc1cc(Br)cc(C)c1-n1cc2c(=O)[nH]c(N3CCOC(O)C3)nc2n1` (racemic) [Example 364] yielded an IC50 of 0.066 µM.

Regarding `O=c1[nH]c(N2CCCC2)nc2nn(-c3ccccc3Cl)cc12` [Example 1], half-maximal inhibition (IC50) required 0.34 µM.

`O=c1[nH]c(N2CCCC2)nc2nn(-c3ccccc3)cc12` [Example 2] came in with an IC50 of 8.9 µM.

Take `Cc1ccccc1-n1cc2c(=O)[nH]c(N3CCCC3)nc2n1` [Example 3, 6-(pyrrolidin-1-yl)-2-(o-tolyl)-2,5-dihydro-4H-pyrazolo[3,4-d]pyrimidin-4-one]: the IC50 is 0.53 µM.

For the molecule `CN(C)c1nc2nn(-c3ccccc3Cl)cc2c(=O)[nH]1` [Example 4], the half-inhibitory concentration (IC50) was determined as 1.7 µM.

On to `Cc1ccccc1-n1cc2c(=O)[nH]c(N3CCOCC3)nc2n1` [Example 5], for which it took 1.4 µM to reach half-maximal inhibition (IC50).

As for `Cc1ccc(C(F)(F)F)cc1-n1cc2c(=O)[nH]c(N3CCCC3)nc2n1` [Example 6], half-maximal inhibition (IC50) required 4 µM.

`COc1ccccc1CN(C)c1nc2nn(-c3ccccc3C)cc2c(=O)[nH]1` [Example 7] registered an IC50 of 22 µM.

In turn, `O=c1[nH]c(N2CCCC2)nc2nn(-c3ccccc3C(F)(F)F)cc12` [Example 8] registered an IC50 of 0.59 µM.

`O=c1[nH]c(N2CCCC2)nc2nn(-c3ccccc3OC(F)(F)F)cc12` [Example 9] returned an IC50 of 1.2 µM.

Consider `O=c1[nH]c(N2CCCC2)nc2nn(-c3c(F)cccc3F)cc12` [Example 10], for which it took 2.4 µM to reach half-maximal inhibition (IC50).

In turn, `Cc1cccc(C)c1-n1cc2c(=O)[nH]c(N3CCCC3)nc2n1` [Example 11] came in with an IC50 of 0.2 µM.

Molecule `Cc1ccccc1-n1cc2c(=O)[nH]c(N3CCC(F)(F)C3)nc2n1` [Example 12] returned an IC50 of 0.38 µM.

As to `COc1nc(N2CCCC2)nc2nn(-c3ccccc3C)cc12` [Example 13], half-maximal inhibition (IC50) was put at 7.7 µM.

The molecule `Cc1ccccc1-n1cc2c(=O)n(C)c(N3CCCC3)nc2n1` [Example 14] gave an IC50 of 7.2 µM.

Molecule `Cc1ccccc1-n1cc2c(=O)[nH]c(N3CCCCC3)nc2n1` [Example 15] had an IC50 of 1.5 µM.

Consider `Cc1ccccc1-n1cc2c(=O)[nH]c(N3CCC3)nc2n1` [Example 16], for which half-maximal inhibition (IC50) required 1.3 µM.

Consider `CCCN(C)c1nc2nn(-c3ccccc3C)cc2c(=O)[nH]1` [Example 18], for which the IC50 turned out to be 12 µM.

With `CCCNc1nc2nn(-c3ccccc3C)cc2c(=O)[nH]1` [Example 19], the IC50 was determined as 1.4 µM.

Regarding `Cc1ccccc1-n1cc2c(=O)[nH]c(N(C)C)nc2n1` [Example 20], 6.5 µM corresponded to half-maximal inhibition (IC50).

Consider `Cc1ccccc1-n1cc2c(=O)[nH]c(N3CCCCCC3)nc2n1` [Example 22], for which inhibition was half-maximal at 8.2 µM (IC50).

In the case of `Cc1ccccc1-n1cc2c(=O)[nH]c(N(C)C(C)C)nc2n1` [Example 23], the IC50 worked out at 1.9 µM.

In turn, `Cc1ccccc1-n1cc2c(=O)[nH]c(Nc3ccccc3)nc2n1` [Example 24] registered an IC50 of 2.4 µM.

With `O=c1[nH]c(N2CCOCC2)nc2nn(-c3ccccc3C(F)(F)F)cc12` [Example 25], the 50% inhibitory concentration (IC50) amounted to 0.95 µM.

Staying with this experiment, now noted: IL-1β production in THP1-Null cells; test compound 24 μM.
A word on the inhibition: it is the change of the read-out against control, counted positive when it falls. In turn, `N#Cc1ccccc1-n1cc2c(=O)[nH]c(N3CCCC3)nc2n1` [Example 29] returned an inhibition at 24 µM of 2%.
